Test results taken from US20160058712A1, “3-HYDROXYPTEROSTILBENE AND THERAPEUTIC APPLICATIONS THEREOF” (priority 2014, published 2016).

Key:
[1] = test system: COLO 205 cells; assay: MTT cell viability assay, COLO 205; format: cell-based; settings: Homo sapiens, COLO205, MTT, 24 h
Description: (§1) The human colon cancer cell lines COLO 205, HCT116 and HT29 were purchased from the American Type Culture Collection (Rockville, Md.). Cell lines were grown in RPMI1640 supplemented with 10% heat inactivated fetal bovine serum (GIBCO BRL, Grand Island, N.Y.), 100 units/mL of penicillin, 100 μg/mL of streptomycin), 2 mM L-glutamine (GIBCO BRL, Grand Island, N.Y.), and were kept at 37° C. in a humidified 5% CO2 incubator. Pterostilbene and 3-HPT were dissolved in dimethyl sulfoxide (DMSO, as final concentration of 0.05%). Cells were treated with 0.05% DMSO as vehicle control.
(§2) Cell viability was assayed by 3(4,5-dimethylthiazol-2-yl)-2,5-diphenyltetrazolium bromide (MTT). Briefly. COLO 205, HCT116 and HT29 cells were plated at a density of 2×10^2 cells/mL into 96 well plates. After overnight growth, cells were treated with a series of concentrations of pterostilbene or 3-hydroxypterostilbene for 24 h. The final concentrations of DMSO in the culture medium were <0.05%. At the end of treatment, 0.2% MTT was added and cells were incubated for a further 4 h. Cell viability was determined by scanning with an ELISA reader with a 570 nm filter.

[2] = test system: HCT-116 cells; assay: MTT cell viability assay, HCT116; format: cell-based; settings: Homo sapiens; HCT-116, MTT, 24 h
Description: as §1, §2

[3] = test system: HT-29 cells; assay: MTT cell viability assay, HT29; format: cell-based; settings: Homo sapiens; HT-29, MTT, 24 h
Description: as §1, §2

[4] = test system: PC-3 (Human prostate cancer cell line); assay: MTT cell viability assay, PC-3; format: cell-based; settings: Homo sapiens; PC-3, MTT
Description: as §2
The MTT reaction explained in Para 0040 was also used to assess the cell viability of human prostate cancer cells (PC-3) in the presence of pterostilbene and 3-hydroxypterostilbene. The results (FIG. 1) are represented in Table II.

[5] = test system: COLO 205 cells; assay: Flow cytometry analysis of subG1 cell population (PI staining); format: cell-based, human; settings: 24 h
Description: For subG1 cell population analysis, COLO 205 cells (2×10^5 cells/mL) were cultured in 12 well and treatment with various concentrations of pterostilbene or 3-hydroxypterostilbene for 24 h. The cells were then harvested, washed with PBS, re-suspended in 200 μL of PBS, and fixed in 800 μL of iced 100% ethanol at […]. After being left to stand overnight, the cell pellets were collected by centrifugation, re-suspended in 1 mL of hypotonic buffer (0.5% Triton X100 in PBS and 0.5 μg/mL RNase) with PI (50 μg/mL) and incubated at 37° C. in the dark for 30 min. Fluorescence emitted from the PIDNA complex was quantitated after excitation of the fluorescent dye by FACScan cytometry (Becton Dickinson, San Jose, Calif.). […] The results indicated a higher apoptotic potential of 3-hydroxypterostilbene for COLO 205 cells.

[6] = test system: COLO 205 cells; assay: Mitochondrial membrane potential by DiOC6 flow cytometry; format: cell-based, human; settings: COLO 205, 50 μM, 15 min; shifted from 224
Description: (§3) For mitochondrial membrane potential and ROS production, COLO 205 cells were treated as described under Example III for 15 min, and then DiOC6 [3,3′-dihexyloxacarbocyanine iodide] (40 nM) or DCFHDA [2′,7′-dichlorodihydrofluorescein diacetate] (20 μM) was added to the medium for a further 30 min at 37° C. After washing with PBS, the fluorescence intensity was determined by FAC Scan cytometry. The DiOC6 fluorescence intensity shifted to the left from 224 to 117 and 75 in pterostilbene and 3-HPT induced apoptotic COLO 205 cells, respectively. […] The role of ROS in the induction of apoptosis is well recognized. […] The imbalance of ROS concentrations could play an important role as an early mediator in 3-HPT induced apoptosis.

[7] = test system: COLO 205 cells; assay: ROS production by DCFHDA flow cytometry; format: cell-based, human; settings: COLO 205, 50 μM, 15 min; from 114
Description: as §3

[8] = test system: COLO 205 xenograft tumors; assay: COLO 205 xenograft model; format: in vivo; settings: 10 mg/kg/d i.p., 15 days, nude mice
Description: Male Balb/c nude mice at 3-4 weeks old (weighing 16-18 g) were obtained from the BioLASCO Experimental Animal Center (BioLASCO, Taipei, Taiwan). All animals were maintained in pathogen free sterile isolators and in a controlled atmosphere (25±1° C. at 50% relative humidity) and with a 12 h light-12 h dark cycle according to institutional guidelines. Animals were fed with standard AIN76 diet and all food, water, caging, and bedding were sterilized prior to use. Animals had free access to food and water at all times. Food cups were replenished with fresh diet every day. All animal experimental protocol used in this study was approved by Institutional Animal Care and Use Committee of the National Kaohsiung Marine University (IACUC, NKMU, #099AAA902, Validity dates: Jan. 1, 2009 Jul. 31, 2012). After 1 week of acclimation, colon cancer COLO 205 cells (5×10^6) in 0.2 mL PBS were injected subcutaneously between the scapulae of each nude mouse. After transplantation, tumor size was measured using calipers, and the tumor volume was estimated according to the following formula: tumor volume […]=L×W2/2, where L is the length and W is the width. Once tumors reached a mean size of […], mice were randomly divided into three groups (6 animals/group). Mice were i.p. injection with pterostilbene or 3-hydroxypterostilbene (10 mg/kg/d, respectively) for 15 days, while control animals were received injection of corn oil. The diet intake and body weight of each animal was monitored every day. The tumor volume was assessed and recorded every 5 days using caliper measurements. After 15 days, the mice were sacrificed by […] and the liver, kidneys, spleen and solid tumors were excised immediately and weighed. Average tumor volume and tumor weight of each group were represent the mean±standard deviation (SD). Average tumor volumes were recorded during the treatment and average tumor weights were measured at the end of experiment. Six samples were analyzed in each group, and values represent the mean±SD. *P<0.05 and **P<0.01, compared with control group. #P<0.05, compared with pterostilbene treated group. The tumor tissues were cut into several portion for western blot analysis or stored at −80° C. […] Furthermore, in mice receiving these treatment regimens, no gross signs of toxicity were observed during visible inspections of general appearance and microscopic examinations of individual organs. • 2.

Q: What does the source list for `COc1cc(/C=C/c2ccc(O)cc2)cc(OC)c1` [Pterostilbene, pterostilbene]?
A: IC50 [1]: 33.4 ± 0.2 µM; IC50 [2]: 47.1 ± 0.6 µM; IC50 [3]: 80.6 ± 3.3 µM; IC50 [4]: > 20 µM; percentage of apoptotic COLO 205 cells (subG1) ([5]; 5 μM): 6.2%; percentage of apoptotic COLO 205 cells (subG1) ([5]; 10 μM): 8.4%; percentage of apoptotic COLO 205 cells (subG1) ([5]; 25 μM): 10.2%; percentage of apoptotic COLO 205 cells (subG1) ([5]; 50 μM): 14.8%; DiOC6 fluorescence intensity (mitochondrial membrane potential) [6]: 117; mean DCFHDA fluorescence intensity (ROS) [7]: 141; side effects or toxicity (body and organ weights, gross signs) [8]: no noticeable side effects or toxicity
